Assay results as given in publication PMC6429507, “Triterpene-Based Carboxamides Act as Good Inhibitors of Butyrylcholinesterase” (Molecules, 2019).
Counter-ions that a name gives are not always drawn. Like-named read-outs stand apart in the source and are kept apart here.

Tests used:
[1] = target: acetylcholinesterase (AChE, electric eel) (Electrophorus electricus, UniProt O42275)
Text: (§1) In this study, carboxamides with different triterpenoic backbones (ursolic, oleanolic, maslinic, betulinic, and platanic acids), and various amine residues (Scheme 1), were investigated.
(§2) A TECAN SpectraFluorPlus working in the kinetic mode and measuring the absorbance at λ = 415 nm was used for the enzymatic studies. Acetylcholinesterase (from Electrophorus electricus), 5,5′-dithiobis-(2-nitrobenzoic acid) (DTNB) and acetylthiocholine iodide were purchased from Sigma. Butyrylcholinesterase (from equine serum) was purchased from Fluka. Preparation of the solutions, assay procedure, as well as molecular modeling conditions can be found in the Supplementary Materials.
(§3) 3.1 Preparation of the solutions
(§4) Preparation of 50 mM Tris-HCl buffer solutions: Tris(hydroxymethyl)-aminomethane (606 mg) was dissolved in bidestilled water (100 mL) and adjusted with HCl to a pH of 8.0 ± 0.1. Buffers were freshly prepared and stored in the refrigerator. AChE solution 2.005 U/mL: the enzyme (271 U/mg, 0.037 mg) was dissolved in freshly prepared buffer pH 8.0 (5 mL) containing NaN3 (0.98 mg). BChE solution 2.040 U/mL: the enzyme (7.54 U/mg, 1.353 mg) was dissolved in freshly prepared buffer pH 8.0 (5 mL) containing NaN3 (0.98 mg). DTNB solution 3 mM: DTNB (23.8 mg) was dissolved in freshly prepared buffer pH 8.0 (20 mL) containing NaCl (116.8 mg) and MgCl2 (38.0 mg). ATChI solution 15 mM:
(§5) ATChI (43.4 mg) was dissolved in bidestilled water (10 mL). All solutions were stored in Eppendorf caps in the refrigerator or in the freezer, if necessary. The pure compounds were […]
(§6) dissolved in bidistilled water. The final concentrations for the enzymatic assay were obtained by diluting the stock solution with bidistilled water.
(§7) A mixture of the DTNB solution (125 µL), enzyme solution (25 µL) and compounds solutions (25 µL, 3 different concentrations and once blank water) was prepared and incubated at 30 °C for 20 min. The substrate (25 µL, 4 different concentrations) was added to start the enzymatic reaction. The absorbance data (l = 415 nm) was recorded under a controlled temperature of 30 °C for 30 min at 1 min intervals. The substrate concentrations in the test were as follows: […]
(§8) determined as the quotient of the slopes (compound divided by blank) of the linear ranges.
(§9) The used substrate concentration was 0.625 mM. The absorbance data was recorded under a controlled temperature of 30 °C for 10 min.

[2] = target: T1, butyrylcholinesterase (BChE, equine serum) (Equus caballus, UniProt P81908); assay: Ellman's assay, butyrylcholinesterase inhibition; type: biochemical; conditions: for Type of Inhibition / Ki′ (uncompetitive inhibition) / Ki: BChE, equine serum; for Ki′ (uncompetitive inhibition) / Ki: Ellman's assay; for Ki: read-out: Ki (competitive inhibition); for Grade of inhibition in% BChE: mean ± SE
T1 construct: Butyrylcholinesterase (from equine serum) was purchased from Fluka; purchased Fluka; host or cells: equine serum
Text: as §1, §2, §3, §4, §5, §6, §7, §8, §9

[3] = read-out: Grade of inhibition in% BChE

T1 sequence (P81908 whole entry): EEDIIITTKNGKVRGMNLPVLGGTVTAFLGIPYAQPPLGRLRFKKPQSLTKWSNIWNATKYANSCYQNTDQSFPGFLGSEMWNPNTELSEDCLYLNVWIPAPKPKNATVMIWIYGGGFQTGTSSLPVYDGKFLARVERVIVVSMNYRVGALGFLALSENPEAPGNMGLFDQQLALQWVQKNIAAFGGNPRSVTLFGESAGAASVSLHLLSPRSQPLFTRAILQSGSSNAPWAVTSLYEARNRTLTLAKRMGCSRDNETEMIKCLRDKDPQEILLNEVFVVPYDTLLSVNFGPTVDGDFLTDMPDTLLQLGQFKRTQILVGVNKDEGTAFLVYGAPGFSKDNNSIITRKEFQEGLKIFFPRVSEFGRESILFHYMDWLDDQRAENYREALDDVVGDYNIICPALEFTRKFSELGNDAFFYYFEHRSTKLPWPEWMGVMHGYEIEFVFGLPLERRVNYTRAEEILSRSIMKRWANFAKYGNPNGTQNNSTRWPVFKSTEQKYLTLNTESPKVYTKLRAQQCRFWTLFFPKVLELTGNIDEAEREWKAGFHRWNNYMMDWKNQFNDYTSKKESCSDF
Sequence of acetylcholinesterase (AChE, electric eel) (O42275 24-633): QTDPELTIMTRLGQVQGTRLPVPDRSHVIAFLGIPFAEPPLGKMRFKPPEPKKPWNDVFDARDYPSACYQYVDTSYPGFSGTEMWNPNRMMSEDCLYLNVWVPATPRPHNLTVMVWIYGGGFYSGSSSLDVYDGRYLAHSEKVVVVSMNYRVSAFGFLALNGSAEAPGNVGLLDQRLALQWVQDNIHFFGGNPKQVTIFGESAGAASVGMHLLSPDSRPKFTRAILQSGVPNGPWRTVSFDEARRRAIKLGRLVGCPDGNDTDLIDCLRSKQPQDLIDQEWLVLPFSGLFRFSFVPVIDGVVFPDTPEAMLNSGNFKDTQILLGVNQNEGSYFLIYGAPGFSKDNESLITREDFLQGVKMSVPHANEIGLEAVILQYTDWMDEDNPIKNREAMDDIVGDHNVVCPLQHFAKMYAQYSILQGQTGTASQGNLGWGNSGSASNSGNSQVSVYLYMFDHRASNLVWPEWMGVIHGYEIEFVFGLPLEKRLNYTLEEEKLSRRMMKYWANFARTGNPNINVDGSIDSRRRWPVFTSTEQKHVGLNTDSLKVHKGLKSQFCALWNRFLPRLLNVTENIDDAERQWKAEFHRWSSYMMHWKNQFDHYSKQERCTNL

SMILES	Grade of inhibition in% AChE ([1]; c = 30 µM, mean ± SE)	Type of Inhibition [2]	Ki′ (uncompetitive inhibition) [2]	Ki [2]	Grade of inhibition in% BChE ([2]; c = 30 µM)	Grade of inhibition in% AChE ([1]; c = 10 µM, mean ± SE)	Grade of inhibition in% BChE ([2]; c = 10 µM)	inhibition at 10 µM [2, 3]	inhibition at 30 µM [2, 3]	Type of Inhibition ([1]; AChE, electric eel)	Ki' (uncompetitive inhibition) ([1]; AChE, electric eel, mean ± SE)	Ki ([1]; read-out: Ki (competitive inhibition), AChE, electric eel, mean ± SE)
CC1(C)CC[C@]2(C(=O)NCCN3CCCCC3)CC[C@]3(C)C(=CC[C@@H]4[C@@]5(C)CC[C@H](O)C(C)(C)[C@@H]5CC[C@]43C)[C@@H]2C1 [Compound 47, (3β)-N-(2-Piperidin-1-ylethyl)-3-hydroxy-olean-12-en-28-amide]	38.65 ± 0.29%	mixed-type	10420 ± 1360 nM	1570 ± 10 nM	74.89 ± 0.04%	–	–	–	–	–	–	–
CC(=O)O[C@H]1CC[C@]2(C)[C@H]3CC[C@@H]4[C@H]5[C@H](C(C)=O)CC[C@]5(C(=O)NCCN(C)C)CC[C@@]4(C)[C@]3(C)CC[C@H]2C1(C)C [Compound 25]	–	mixed-type	–	–	–	no inhibition	88.49 ± 0.58%	–	–	–	–	–
C=C(C)C1CC[C@]2(C(=O)NCCN)CC[C@]3(C)C(CCC4[C@@]5(C)CC[C@H](OC(C)=O)C(C)(C)C5CC[C@]43C)C12 (some centres unmarked) [Compound 14]	–	–	–	–	–	56.17 ± 0.64%	42.70 ± 1.33%	–	–	–	–	–
CC(=O)[C@@H]1CC[C@]2(C(=O)NCCN3CCCCC3)CC[C@]3(C)[C@H](CC[C@@H]4[C@@]5(C)CC[C@H](O)C(C)(C)[C@@H]5CC[C@]43C)[C@@H]12 [Compound 50, (3β)-N-(2-Piperidin-1-ylethyl)-3-hydroxy-20-oxo-30-norlupan-28-amide]	–	mixed-type	3090 ± 30 nM	970 ± 40 nM	–	52.14 ± 1.55%	88.37 ± 0.85%	–	–	–	–	–
COc1ccc2c3c1O[C@H]1C[C@@H](O)C=C[C@@]31CCN(C)C2 [GH, Galantamine hydrobromide, reference compound]	–	competitive	–	–	–	–	–	57.79 ± 0.52%	80.25 ± 0.33%	–	–	–
C=C(C)C1CC[C@]2(C(=O)NCCN3CCCCC3)CC[C@]3(C)C(CCC4[C@@]5(C)CC[C@H](O)C(C)(C)C5CC[C@]43C)C12 (stereo partly drawn) [Compound 49, (3β)-N-(2-piperidin-1-ylethyl)-3-hydroxy-lup-20(29)-en-28-amide]	–	mixed-type	> 8000 nM	2520 ± 290 nM	–	82.72 ± 0.09%	66.02 ± 0.70%	–	–	mixed-type	1420 ± 80 nM	1000 ± 90 nM
C=C(C)C1CC[C@]2(C(=O)NCCN)CC[C@]3(C)C(CCC4[C@@]5(C)CC[C@H](O)C(C)(C)C5CC[C@]43C)C12 (some centres unmarked) [Compound 19]	–	–	–	–	–	62.95 ± 0.61%	36.70 ± 5.34%	–	–	–	–	–
CN(C)CCNC(=O)[C@]12CCC(C)(C)C[C@H]1C1=CC[C@@H]3[C@@]4(C)C[C@@H](O)[C@H](O)C(C)(C)[C@@H]4CC[C@@]3(C)[C@]1(C)CC2 [Compound 28, (2α,3β)-N-[2-(Dimethylamino)-ethyl]-2,3-dihydroxy-olean-12-en-28-amide]	13.47 ± 0.55%	mixed-type	27260 ± 3470 nM	2200 ± 250 nM	79.01 ± 0.29%	–	–	–	–	–	–	–
CC1(C)CCC2(C(=O)NCCN3CCCC3)CCC3(C)C(=CCC4C5(C)CC(O)C(O)C(C)(C)C5CCC43C)C2C1 (stereo not drawn) [Compound 38, (2α,3β)-N-(2-Pyrrolidin-1-ylethyl)-2,3-dihydroxy-olean-12-en-28-amide]	23.33 ± 0.22%	mixed-type	14150 ± 2420 nM	2060 ± 30 nM	77.49 ± 0.10%	–	–	–	–	–	–	–
